We go through three compounds from ChEMBL document CHEMBL1201862, “PubChem BioAssay data set” (2004).

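Each compound was tested at five concentrations against cells in 96-well plates for 48 hours. Here, GI50 denotes the concentration required for 50% inhibition of growth.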 The source made the active and inactive calls. Rule as the data show it: active = GI50 up to about 1.1 µM and inactive = higher. Numbered stars: 1 amine (or outer) side, 2 acyl side, 3 side chain; on linkers, the order of the positions; unused ones are H or OH. Square brackets hold non-standard residues; d marks the D form. Peptide text beside a SMILES is read from it. X55 = CC[C@H](C)[C@H](OC(=O)[C@@H](C)[C@@H](CC)N[*:1])C(=O)[*:2]; X31 = C[C@H](N[*:1])C(=O)C(C)(C)C(=O)[*:2]; NMeY = CN[C@@H](Cc1ccc(O)cc1)C(=O)O; NMeL = CN[C@@H](CC(C)C)C(=O)O; NMeV = CN[C@H](C(=O)O)C(C)C

Some test systems named below: ACHN; KM-20L2; OVCAR-4; SR; KM12; OVCAR-3; UACC-257; UACC-62; K562; SW-620; SK-MEL-28; SN12C; LOX IMVI; Malme-3M; UO-31; HL-60; SNB-19; T47D; MDA-MB-231; Hs-578T.
Holding throughout (assay): inhibition of tumour cell growth, NCI panel, 48 h

Turning to `S=C(Nc1ccccc1)N1N=C2c3ccccc3CC[C@H]2[C@@H]1c1ccccc1`, the GI50 with ACHN is 6.78 µM (inactive); in the assay on KM-20L2, 3.21 µM (inactive); in the assay with OVCAR-4 it was 47.1 µM (inactive); with SR it was 248 nM (active); with KM12 it was 2.79 µM (inactive); in the assay on OVCAR-3, 1.88 µM (inactive). The GI50 with UACC-257 is 3.58 µM (inactive); in the assay with UACC-62 it was 2.75 µM (inactive); in the assay with K562, 607 nM (active); in the assay with SW-620, 2.4 µM (inactive); in the assay with SK-MEL-28, 8.09 µM (inactive); in the assay with SN12C, 37.2 µM (inactive). Besides, the GI50 with LOX IMVI was 7.35 µM (inactive); with Malme-3M, > 100 µM (inactive); in the assay on UO-31, 13.2 µM (inactive); in the assay on HL-60, 855 nM (active); with SNB-19, 9.18 µM (inactive).
On to `Oc1cc(-c2ccccc2)nc2cc3c(cc12)OCO3`, for which the GI50 in the assay on T47D was 42.1 µM (inactive); in the assay on ACHN, 15.2 µM (inactive); with KM-20L2, 7.35 µM (inactive); in the assay on OVCAR-4 it was > 97.3 µM (inactive); with SR it was 3360 nM (inactive); with MDA-MB-231, 85.5 µM (inactive). In addition, the GI50 is 1.54 µM (inactive) in the assay on KM12; 10 µM (inactive) in the assay on OVCAR-3; 44.5 µM (inactive) with UACC-257; 5.52 µM (inactive) with UACC-62; 24.5 µM (inactive) in the assay on Hs-578T; 4060 nM (inactive) in the assay on K562. In addition, the GI50 was 6.15 µM (inactive) in the assay on SW-620; 6.75 µM (inactive) in the assay on SK-MEL-28; 12.8 µM (inactive) in the assay on SN12C; 11.6 µM (inactive) with LOX IMVI; 3.76 µM (inactive) in the assay with Malme-3M; 13.1 µM (inactive) in the assay with UO-31. Further, the GI50 with HL-60 was 4110 nM (inactive); with SNB-19 it was 20 µM (inactive).
With `CC[C@H](C)[C@@H]1OC(=O)[C@@H](C)[C@@H](CC)NC(=O)[C@H](C)NC(=O)C(C)(C)C(=O)[C@H](C)NC(=O)[C@H](Cc2ccc(OC)cc2)N(C)C(=O)[C@H](C(C)C)N(C)C(=O)CNC(=O)[C@H](CC(C)C)N(C)C(=O)CNC1=O` [DOLASTATIN 11] (cyclo(A[X55]G[NMeL]G[NMeV][NMeY](Me)[X31])), the GI50 in the assay on T47D is 0.448 µM (active); in the assay with ACHN, 0.0327 µM (active); with KM-20L2, < 0.0197 µM (active); in the assay on OVCAR-4 it was 0.0507 µM (active); with SR, 35.5 nM (active); with MDA-MB-231, 0.0632 µM (active). The GI50 in the assay with KM12 was 0.4 µM (active); in the assay with OVCAR-3, 0.0413 µM (active); with UACC-257, 0.0817 µM (active); in the assay on UACC-62, 0.0893 µM (active); with Hs-578T, 0.258 µM (active); in the assay with K562 it was 88.5 nM (active). The GI50 was 0.286 µM (active) in the assay with SW-620; 0.194 µM (active) with SN12C; 0.01 µM (active) in the assay on LOX IMVI; 0.13 µM (active) in the assay with Malme-3M; 0.169 µM (active) with UO-31; 11.7 nM (active) in the assay on HL-60. Further, the GI50 in the assay on SNB-19 was 0.185 µM (active).
